Results taken from patent publication US20050124694A1, “Method of accelerating metabolism of alcohol” (priority 2003, published 2005).

Experiment: Breath sample analysis for alcohol (BAC) in volunteers after 5 glasses of wine
Type: in vivo, human
Conditions: for BAC AFTER 30 MIN.: 30 min after 5 glasses of wine on an empty stomach together with a fifty gram dose; for BAC AFTER 30 MIN. / BAC AFTER 60 MIN / BAC AFTER 90 MIN / BAC AFTER 120 MIN / BAC AFTER 150 MIN / BAC AFTER 180 MIN / BAC AFTER 210 MIN / BAC AFTER 240 MIN: breath sample; for BAC AFTER 60 MIN: 60 min after 5 glasses of wine on an empty stomach together with a fifty gram dose; for BAC AFTER 90 MIN: 90 min after 5 glasses of wine on an empty stomach together with a fifty gram dose; for BAC AFTER 120 MIN: 120 min after 5 glasses of wine on an empty stomach together with a fifty gram dose; for BAC AFTER 150 MIN: 150 min after 5 glasses of wine on an empty stomach together with a fifty gram dose; for BAC AFTER 180 MIN: 180 min after 5 glasses of wine on an empty stomach together with a fifty gram dose; for BAC AFTER 210 MIN: 210 min after 5 glasses of wine on an empty stomach together with a fifty gram dose; for BAC AFTER 240 MIN: 240 min after 5 glasses of wine on an empty stomach together with a fifty gram dose; for Effect on the consumer's BAC as measured by the test, compared with no administration: fifty gram dose with 5 glasses of wine
Procedure: A commercially available instrument was used to analyze breath samples provided by volunteers for alcohol. TEN volunteers each consumed 5 GLASSES OF WINE on an empty stomach together with a FIFTY GRAM dose of one or more compounds of formula (I) as tabulated below. A control group of volunteers WAS not given any of the compound. The volunteers then provided _[…] breath samples for analysis at intervals of 30 minutes. THE COMPOUNDS GIVEN AND THE SAC LEVELS READ AT EACH SAMPLING ARE TABULATED BELOW

Row | SMILES | BAC AFTER 30 MIN. [%] | BAC AFTER 60 MIN [%] | BAC AFTER 90 MIN [%] | BAC AFTER 120 MIN [%] | BAC AFTER 150 MIN [%] | BAC AFTER 180 MIN [%] | BAC AFTER 210 MIN [%] | BAC AFTER 240 MIN [%] | Effect on the consumer's BAC as measured by the test, compared with no administration
1 | NC(=O)CC[C@H](N)C(=O)O [III] | 0.09 | 0.08 | 0.08 | 0.07 | 0.07 | 0.05 | 0.04 | 0.03 | helps to diminish the consumer's BAC as measured by the test more rapidly than without such administration
2 | CC(=O)O[C@H](CC(=O)[O-])C[N+](C)(C)C [compound II] | 0.10 | 0.09 | 0.08 | 0.08 | 0.07 | 0.06 | 0.04 | 0.03 | helps to diminish the consumer's BAC as measured by the test more rapidly than without such administration
